# Data from patent US20230203081A1, “LINCOSAMIDE ANTIBIOTICS AND USES THEREOF” (President and Fellows of Harvard College, priority 2020, published 2023).
# Experiments:
# Assay type in all cases: cell-based
# [1] = tested on: E. faecalis MMX 847; cErmB; experiment: MIC (broth microdilution or agar dilution, CLSI); settings: Enterococcus faecalis; E. faecalis HAV#036, MMX 847; mac-resistant, cErmB; read-out: MIC
# Method in brief: (§1)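 Inoculum for broth microdilution was 5×10^5 CFU/mL final, prepared from overnight 35° C blood-agar subcultures (separate handling for streptococcal and anaerobic strains); MICs read by CLSI broth microdilution or agar dilution.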
# S. pyogenes ATCC 19615 = experiment: MIC (broth microdilution or agar dilution, CLSI); settings: Streptococcus pyogenes, ATCC19615, S. pyogenes HAV#004, ATCC 19615; read-out: MIC
# Method in brief: as §1
# [2] = tested on: S. aureus ATCC BAA-1707 (MRSA); experiment: MIC (broth microdilution or agar dilution, CLSI); settings: Staphylococcus aureus
# Method in brief: as §1
# S. aureus ATCC 29213 = experiment: MIC (broth microdilution or agar dilution, CLSI); settings: Staphylococcus aureus, ATCC29213, S. aureus HAV#001, ATCC 29213, MP-549; read-out: MIC
# Method in brief: as §1
# [3] = tested on: S. pneumoniae MMX 3028 cErmB; experiment: MIC (broth microdilution or agar dilution, CLSI); settings: Streptococcus pneumoniae, MMX3028CERMB; S. pneumoniae HAV#033; MMX 3028, cErmB; read-out: MIC
# Method in brief: as §1
# E. coli LptD = experiment: MIC (broth microdilution or agar dilution, CLSI); settings: Escherichia coli, E. coli HAV#040; LptD; read-out: MIC
# Method in brief: as §1
# S. aureus MMX 3035 cErmA = experiment: MIC (broth microdilution or agar dilution, CLSI); settings: Staphylococcus aureus, MMX3035CERMA; S. aureus HAV#031, MMX 3035; cErmA; read-out: MIC
# Method in brief: as §1
# S. pneumoniae ATCC 6303 = experiment: MIC (broth microdilution or agar dilution, CLSI); settings: Streptococcus pneumoniae, ATCC6303; S. pneumoniae HAV#351, ATCC 6303; read-out: MIC
# Method in brief: as §1
# [4] = tested on: S. pneumoniae MMX 3031 cMefA; experiment: MIC (broth microdilution or agar dilution, CLSI); settings: Streptococcus pneumoniae, MMX3031CMEFA, S. pneumoniae HAV#034; MMX 3031, cMefA; read-out: MIC
# Method in brief: as §1
# [5] = tested on: S. pyogenes MMX 946; cErmB; experiment: MIC (broth microdilution or agar dilution, CLSI); settings: Streptococcus pyogenes; S. pyogenes HAV#035, MMX 946; cErmB, mac-resistant; read-out: MIC
# Method in brief: as §1
# K. pneumoniae ATCC 10031 = experiment: MIC (broth microdilution or agar dilution, CLSI); settings: Klebsiella pneumoniae, ATCC10031
# Method in brief: as §1
# S. pneumoniae ATCC 49619 = experiment: MIC (broth microdilution or agar dilution, CLSI); settings: Streptococcus pneumoniae, ATCC49619, S. pneumoniae HAV#003, ATCC 49619; read-out: MIC
# Method in brief: as §1
# E. faecalis ATCC 29212 = experiment: MIC (broth microdilution or agar dilution, CLSI); settings: Enterococcus faecalis, ATCC29212, E. faecalis HAV#005, ATCC 29212; read-out: MIC
# Method in brief: as §1
# E. coli ATCC 25922 = experiment: MIC (broth microdilution or agar dilution, CLSI); settings: Escherichia coli, ATCC25922; E. coli HAV#006, ATCC 25922; read-out: MIC
# Method in brief: as §1
# E. coli armA = experiment: microbe, parasite or virus in culture; settings: Escherichia coli, E. coli HAV#056; Clinical, armA
# Method in brief: as §1
# E. coli ΔTolC = experiment: microbe, parasite or virus in culture; settings: Escherichia coli, E. coli HAV#038; ΔTolC
# Method in brief: as §1
# [6] = tested on: broad panel of different clinical isolates; experiment: microbe, parasite or virus in culture
# Method in brief: as §1
smiles,measurement,setting,value
C[C@H]1COc2c(N3CCN(C)CC3)c(F)cc3c(=O)c(C(=O)O)cn1c23 [Levofloxacin],MIC,[1],> 64 µg/mL
same,MIC,S. pyogenes ATCC 19615,0.5 µg/mL
same,MIC,[2],> 128 µg/mL
same,MIC,S. aureus ATCC 29213,0.25 µg/mL
same,MIC,[3],0.5 µg/mL
same,MIC,E. coli LptD,≤ 0.06 µg/mL
same,MIC,S. aureus MMX 3035 cErmA,4 µg/mL
same,MIC,S. pneumoniae ATCC 6303,0.5 µg/mL
same,MIC,[4],0.5 µg/mL
same,MIC,[5],0.5 µg/mL
same,MIC,K. pneumoniae ATCC 10031,≤ 0.03 µg/mL
same,MIC,S. pneumoniae ATCC 49619,1 µg/mL
same,MIC,E. faecalis ATCC 29212,2 µg/mL
same,MIC,E. coli ATCC 25922,≤ 0.06 µg/mL
same,MIC,E. coli armA,≤ 0.06 µg/mL
same,MIC,E. coli ΔTolC,≤ 0.06 µg/mL
same,MIC,"[6]; Acinetobacter baumannii, A. baumannii HAV#651, Clinical",0.125 µg/mL
same,MIC,"[6]; Acinetobacter baumannii, A. baumannii HAV#652 Clinical",1 µg/mL
same,MIC,"[6]; Acinetobacter baumannii, A. baumannii HAV#653, Clinical",0.25 µg/mL
same,MIC,"[6]; Acinetobacter baumannii, A. baumannii HAV#654, Clinical",0.125 µg/mL
same,MIC,"[6]; Acinetobacter baumannii, A. baumannii HAV#655, Clinical",0.5 µg/mL
same,MIC,"[6]; Acinetobacter baumannii, A. baumannii HAV#656, Clinical",32 µg/mL
same,MIC,"[6]; Acinetobacter baumannii, A. baumannii HAV#657, Clinical",0.5 µg/mL
same,MIC,"[6]; Acinetobacter baumannii, A. baumannii HAV#658, Clinical",0.25 µg/mL
same,MIC,"[6]; Acinetobacter baumannii, A. baumannii HAV#659, Clinical",16 µg/mL
same,MIC,"[6]; Acinetobacter baumannii, A. baumannii HAV#660, Clinical",64 µg/mL
same,MIC,"[6]; Acinetobacter baumannii, A. baumannii HAV#661, Clinical",0.125 µg/mL
same,MIC,"[6]; Acinetobacter baumannii, A. baumannii HAV#662, Clinical",8 µg/mL
same,MIC,"[6]; Acinetobacter baumannii, A. baumannii HAV#663, Clinical",0.25 µg/mL
same,MIC,"[6]; Acinetobacter baumannii, A. baumannii HAV#664, Carbapenem R",64 µg/mL
same,MIC,"[6]; Enterococcus faecalis, E. faecalis HAV#602, Clincal",1 µg/mL
same,MIC,"[6]; Enterococcus faecalis, E. faecalis HAV#607, Clinical",64 µg/mL
same,MIC,"[6]; Enterococcus faecalis, E. faecalis HAV#608, Clinical",64 µg/mL
same,MIC,"[6]; Enterococcus faecalis, E. faecalis HAV#609, Clinical",32 µg/mL
same,MIC,"[6]; Enterococcus faecalis, E. faecalis HAV#610, Clinical",8 µg/mL
same,MIC,"[6]; Enterococcus faecalis, S. faecalis 5060, Line R & Vanco R",64 µg/mL
same,MIC,"[6]; Enterococcus faecalis, S. faecalis 5074, Line R",8 µg/mL
same,MIC,"[6]; Enterococcus faecalis, VRE, E. faecalis HAV#251, Clinical VRE",2 µg/mL
same,MIC,"[6]; Enterococcus faecalis, VRE, E. faecalis HAV#606, Clinical",128 µg/mL
same,MIC,"[6]; Enterococcus faecium, E. faecium HAV#317, Clinical",2 µg/mL
same,MIC,"[6]; Enterococcus faecium, E. faecium HAV#324, Clinical",> 128 µg/mL
same,MIC,"[6]; Enterococcus faecium, E. faecium HAV#327, Clinical",4 µg/mL
same,MIC,"[6]; Enterococcus faecium, E. faecium HAV#328, Clinical",128 µg/mL
same,MIC,"[6]; Enterococcus faecium, E. faecium HAV#329, Clinical",128 µg/mL
